Reference: patent publication US7510850B2, “Isolation of the mitotic spindle matrix and its methods of use” (Carnegie Institution of Washington, priority 2005, dated 2009)

Tests used:
[1] = tested on: Mouse ES cells; test: Mitotic arrest of mouse ES cells; assay type: cell-based; settings: nocodazole 400 nM, about 12 hours
Protocol: FIG. 9: Induction of mitotic spindle matrix assembly by RanGTP and AurA-beads in mouse ES cells. Mouse ES cells were arrested in mitosis using nocodazole. 70-90% mitotic arrest can be achieved after about 12 hours of nocodazole (400 nM) treatment. The ES cells were washed in PBS and the cell pellet was snap frozen in liquid nitrogen. To make the cell lysate, an energy mix, which contains 0.5 mg/ml delta 90 cyclin B, 10 mM ATP, 100 mM creatine phosphate, 0.5 mg/ml creatine kinase, that equals to 5% of the volume of the ES cell pellet was used to resuspend the ES cell pellet. A ˜2-second sonication was used to disrupt the cell followed by centrifugation to make clarified and concentrated ES cell lysates. RanGTP and AurA-beads were added to the lysate to induce the assembly of mitotic spindle matrix. Shown are matrices that were double labeled with tubulin and lamin B, Sox2, or nanog. AurA-beads (2.8 μm) embedded in the matrices serve as reference for the scale.

[2] = tested on: LB3-matrix; test: LB3-matrix assembly in egg extracts (AurA-beads plus RanGTP or sperm chromatin); assay type: biochemical, Xenopus
Protocol: Two methods were used to assay for LB3-matrix assembled in egg extracts. In the first method, spindle assembly was induced with either sperm or AurA-beads plus RanGTP. After incubation, 10 μl of egg extract was diluted into 1 ml XB buffer containing nocodazole (10 μM final concentration) and incubated at room temperature for 10 to 15 minutes to depolymerize MTs. In the second method, egg extracts were incubated with either sperm or AurA-beads plus RanGTP in the presence of 10 μM nocodazole at room temperature for the same time as for spindle assembly reactions. After incubated the egg extracts were diluted into 1 ml BRB80 buffer containing 30% glycerol. LB3-matrix assembled in both methods was spun onto coverslips through 3 ml BRB80 buffer containing 40% glycerol in the same manner as MT spin-down. The LB3-matrix were fixed with methanol (−20° C.) and stained with either polyclonal or monoclonal antibodies to LB3.
To detect the membrane in the lamin B matrix, spindles and LB3-matrices were assembled and spun onto coverslips as described above. The coverslips were incubated in BRB80 containing 20% sucrose and 1 μM Vybrant CM-Dil (Molecular Probes, V22888) for 5 minutes at room temperature and then washed briefly in BRB80 containing 20% sucrose. […]

[3] = tested on: mitotic spindle; test: Spindle assembly in Xenopus egg extract; assay type: biochemical; settings: sperm or RanGTP plus AurA-beads; LB3T, LB3T-nls 10 μM; ΔNLB3, wild-type LB3 2 μM
Protocol: CSF-arrested Xenopus egg extracts, Xenopus sperm, and AurA-beads were prepared as described. […] Spindle assembly reactions were incubated at room temperature for 60 to 90 minutes with sperm or for 10 to 30 minutes with AurA-beads and RanGTP. To immunodeplete LB3, monoclonal antibody or polyclonal antibody to LB3 was coupled to protein A magnetic or agarose beads. IgG from non-immunized rabbits (Jackson Laboratory) was used for mock-depletion. To inhibit LB3 assembly with dominant negative LB3 mutants, LB3T and LB3T-nls were added at 10 μM final concentration, ΔNLB3 and wild-type LB3 were added at 2 μM final concentration to the egg extracts and incubated for 20 minutes before spindle assembly assays.

Molecule: COC(=O)Nc1nc2ccc(C(=O)c3cccs3)cc2[nH]1 [nocodazole]
- mitotic arrest [1]: 70-90%
- sperm around which LB3-matrix was still assembled ([2]; MT assembly inhibited by nocodazole): more than half

Molecule: triton X100
- lamin B matrix integrity ([2]; 0.1% in XB containing nocodazole, 10 min at room temperature): completely disrupted

B1: wild-type LB3: lamin B3, the major form of lamin B in Xenopus eggs, 6His fusion protein (protein)
chain: MATSTPSRAREHASAAQSPGSPTRISRMQEKEDLRHLNDRLAAYIERVRSLEADKSLLKIQLEEREEVSSREVTNLRQLYETELADARKLLDQTANERARLQVELGKVREEYRQLQARNSKKENDLSLAQNQLRDLESKLNTKEAELATALSGKRGLEEQLQEQRAQIAGLESSLRDTTKQLHDEMLWRVDLENKMQTIREQLDFQKNIHTQEVKEIKKRHDTRIVEIDSGRRVEFESKLAEALQELRRDHEQQILEYKEHLEKNFSAKLENAQLAAAKNSDYASATREEIMATKLRVDTLSSQLNHYQKQNSALEAKVRDLQDMLDRAHDMHRRQMTEKDREVTEIRQTLQGQLEEYEQLLDVKLALDMEINAYRKMLEGEEQRLKLSPSPSQRSTVSRASTSQTSRLLRGKKRKLDETGRSVTKRSYKVVQQASSTGPVSVEDIDPEGNYVRLLNNTEEDFSLHGWVVKRMHMSLPEIAFKLPCRFILKSSQRVTIWAAGAGAVHSPPTDLVWKSQKTWGTGDNIKITLLDSTGEECAERTLYRVIGEEGETDEDFVEEEELERQFRSQSHQSVDPSC
- spindle assembly [3]: neither buffer control nor wild-type LB3 affected
